Data as given in ChEMBL document CHEMBL5096149, “Recent Update on Targeting c-MYC G-Quadruplexes by Small Molecules for Anticancer Therapeutics” (J Med Chem, 2021).

Legend:
Quadruplex DNA [1] = test: Thermal stabilization of c-MYC G-quadruplex DNA (unknown origin) assessed as change in melting temperature at 1:1 ratio in presence of K+ by FRET melting assay; assay type: nucleic-acid assay
Quadruplex DNA [2] = test: Thermal stabilization of c-MYC G-quadruplex DNA (unknown origin) assessed as change in melting temperature at 1:1 ratio in absence of K+ by FRET melting assay; assay type: nucleic-acid assay
HeLa [3] = test: Antiproliferative activity against human HeLa cells assessed as inhibition of cell growth by XTT assay; assay type: functional, cell-based
[4] = Antiproliferative activity against human Kidney epithelial cells assessed as inhibition of cell growth by XTT assay; assay type: toxicity, cell-based
Quadruplex DNA [5] = test: Thermal stabilization of c-MYC G-quadruplex DNA (unknown origin) assessed as change in melting temperature at 1:5 ratio by FRET melting assay; assay type: nucleic-acid assay
Quadruplex DNA [6] = test: Binding affinity to c-MYC G-quadruplex DNA (unknown origin) assessed as association constant by fluorescence spectroscopy; assay type: nucleic-acid assay
SMMC-7721 = test: Antitumor activity against human SMMC-7721 cells xenografted in mouse model assessed as tumor growth inhibition at 20 mg/kg,ip administrated for 3 weeks; assay type: functional; conditions: SMMC-7721, 504 h
Quadruplex DNA [7] = test: Thermal stabilization of c-MYC G-quadruplex DNA (unknown origin) assessed as change in melting temperature at 1:3 ratio by circular dichroism spectroscopy; assay type: nucleic-acid assay
Quadruplex DNA [8] = test: Binding affinity to c-MYC G-quadruplex DNA (unknown origin) assessed as association rate constant by UV-Vis spectroscopy; assay type: nucleic-acid assay
CA46 [9] = test: Cytotoxicity against human CA46 cells assessed as reduction in cell viability by MTS assay; assay type: functional, cell-based
Raji = test: Cytotoxicity against human Raji cells assessed as reduction in cell viability by MTS assay; assay type: functional, cell-based
Quadruplex DNA [10] = test: Binding affinity to c-MYC G-quadruplex DNA (unknown origin) assessed as second order binding constant by surface plasmon resonance analysis; assay type: nucleic-acid assay
Quadruplex DNA [11] = test: Thermal stabilization of c-MYC G-quadruplex (Pu47) DNA (unknown origin) assessed as change in melting temperature at 1:5 ratio by FRET melting assay; assay type: nucleic-acid assay
Quadruplex DNA [12] = test: Binding affinity to c-MYC G-quadruplex DNA (unknown origin) assessed as first order binding constant by surface plasmon resonance analysis; assay type: nucleic-acid assay
[13] = Antiproliferative activity against human Kidney epithelial cells assessed as inhibition of cell growth incubated for 24 hrs by XTT assay; assay type: toxicity, cell-based
HeLa [14] = test: Antiproliferative activity against human HeLa cells assessed as inhibition of cell growth incubated for 24 hrs by XTT assay; assay type: functional, cell-based
HCT-116 = test: Antiproliferative activity against human HCT-116 cells assessed as inhibition of cell growth incubated for 24 hrs by XTT assay; assay type: functional, cell-based; conditions: HCT-116, 24 h
[15] = Cytotoxicity against human ARD cells assessed as inhibition of cell viability incubated for 72 hrs by MTS assay; assay type: functional, cell-based
[16] = Cytotoxicity against human KMS-27 cells assessed as inhibition of cell viability incubated for 72 hrs by MTS assay; assay type: functional, cell-based; conditions: KMS-27, 72 h
[17] = Cytotoxicity against human KMM-1 cells assessed as inhibition of cell viability incubated for 72 hrs by MTS assay; assay type: functional, cell-based; conditions: KMM-1, 72 h
[18] = Cytotoxicity against human OPM-1 cells assessed as inhibition of cell viability incubated for 72 hrs by MTS assay; assay type: functional, cell-based; conditions: OPM-1, 72 h
[19] = Cytotoxicity against human Fibroblast cells assessed as inhibition of cell viability incubated for 72 hrs by MTS assay; assay type: toxicity, cell-based
KMS-12-PE = test: Cytotoxicity against human KMS-12-PE cells assessed as inhibition of cell viability incubated for 72 hrs by MTS assay; assay type: functional, cell-based
[20] = Cytotoxicity against human JIM1 cells assessed as inhibition of cell viability incubated for 72 hrs by MTS assay; assay type: functional, cell-based; conditions: JIM1, 72 h
Quadruplex DNA [21] = test: Thermal stabilization of c-MYC G-quadruplex DNA (unknown origin) assessed as change in melting temperature at 1:4 ratio by circular dichroism spectroscopy; assay type: nucleic-acid assay
L-363 = test: Cytotoxicity against human L-363 cells assessed as inhibition of cell viability incubated for 72 hrs by MTS assay; assay type: functional, cell-based; conditions: L-363, 72 h
Quadruplex DNA [22] = test: Binding affinity to c-MYC G-quadruplex DNA (unknown origin) assessed as association rate constant by surface plasmon resonance analysis; assay type: nucleic-acid assay
NCI-H929 = test: Cytotoxicity against human NCI-H929 cells assessed as inhibition of cell viability incubated for 72 hrs by MTS assay; assay type: functional, cell-based; conditions: NCI-H929, 72 h
[23] = Cytotoxicity against human Karpas-417 cells assessed as inhibition of cell viability incubated for 72 hrs by MTS assay; assay type: functional, cell-based; conditions: Karpas-417, 72 h
CA46 [24] = test: Cytotoxicity against human CA46 cells assessed as inhibition of cell viability incubated for 72 hrs by MTS assay; assay type: functional, cell-based; conditions: CA46, 72 h
[25] = Cytotoxicity against human HEK293T cells assessed as inhibition of cell viability incubated for 72 hrs by MTS assay; assay type: toxicity, cell-based, HEK-293T
AMO1 = test: Cytotoxicity against human AMO1 cells assessed as inhibition of cell viability incubated for 72 hrs by MTS assay; assay type: functional, cell-based; conditions: AMO1, 72 h
Quadruplex DNA [26] = test: Binding affinity to c-MYC G-quadruplex (Mer22) DNA (unknown origin) assessed as first order binding constant by isothermal titration calorimetry method; assay type: nucleic-acid assay
Quadruplex DNA [27] = test: Binding affinity to c-MYC G-quadruplex (Mer22) DNA (unknown origin) assessed as second order binding constant by isothermal titration calorimetry method; assay type: nucleic-acid assay
Quadruplex DNA [28] = test: Thermal stabilization of c-MYC G-quadruplex (Mer22) DNA (unknown origin) assessed as change in melting temperature at 1:3 ratio by UV-Vis spectroscopy; assay type: nucleic-acid assay
Quadruplex DNA [29] = test: Thermal stabilization of c-MYC G-quadruplex (Mer22) DNA (unknown origin) assessed as change in melting temperature at 1:3 ratio by FRET melting assay; assay type: nucleic-acid assay
Quadruplex DNA [30] = test: Binding affinity to c-MYC G-quadruplex (Mer22) DNA (unknown origin) assessed as association rate constant by surface plasmon resonance analysis; assay type: nucleic-acid assay
Quadruplex DNA [31] = test: Binding affinity to c-MYC G-quadruplex DNA (unknown origin) assessed as association rate constant by isothermal titration calorimetry method; assay type: nucleic-acid assay
Quadruplex DNA [32] = test: Binding affinity to c-MYC G-quadruplex (Pu22) DNA (unknown origin) assessed as association rate constant by isothermal titration calorimetry method; assay type: nucleic-acid assay
Quadruplex DNA [33] = test: Binding affinity to c-MYC G-quadruplex (Pu22) DNA (unknown origin) assessed as association constant by fluorescence spectroscopy; assay type: nucleic-acid assay

CN(C)CCCNC(=O)c1ccc(-n2cc(-c3ccc4[nH]c5ccc(-c6cn(-c7ccc(C(=O)NCCCN(C)C)cc7)nn6)cc5c4c3)nn2)cc1
ΔTm (Quadruplex DNA [1]): 24 °C | ΔTm (Quadruplex DNA [2]): 23.5 °C

CN(CCCCn1cc(CCCC(=O)OC[C@H]2O[C@@H](n3cnc4c(=O)[nH]c(N)nc43)[C@@H]3OC(C)(C)O[C@@H]32)nn1)Cc1c2ccccc2c(CN(C)CCCCn2cc(CCCC(=O)OC[C@H]3O[C@@H](n4cnc5c(=O)[nH]c(N)nc54)[C@@H]4OC(C)(C)O[C@@H]43)nn2)c2ccccc12
IC50 (HeLa [3]): 6.2 µM | IC50 [4]: > 50 µM | ΔTm (Quadruplex DNA [5]): 8.8 °C | Ka (Quadruplex DNA [6]): 2.56 10^6/M

CC1=CC2(c3cc(C)ccn3)C(=O)C=C(c3ccc4ccccc4c3)N2C=C1 (stereo unspecified)
Ka (Quadruplex DNA [6]): 1 10^6/M

CN(C)CCCNCCC(=O)Nc1ccc(C(=O)Nc2cc(Cl)ccc2-c2nc(NCCCN(C)C)c3ccccc3n2)cc1
inhibition in vivo at 20 mg/kg (SMMC-7721): 58.2%

CN(C)CCn1c(NC(=O)c2ccc3ccc4ccc(C(=O)Nc5nc6ccccc6n5CCN(C)C)nc4c3n2)nc2ccccc21
ΔTm (Quadruplex DNA [7]): 19.6 °C | Ka (Quadruplex DNA [8]): 2.41 10^5/M

Cc1c2ccncc2c(C)c2c1[nH]c1ccc(OCCN(C)C)cc12
IC50 (CA46 [9]): 13 µM | IC50 (Raji): 2.6 µM | K (Quadruplex DNA [10]): 0.7 10^6/M | ΔTm (Quadruplex DNA [11]): 21 °C | K (Quadruplex DNA [12]): 1 10^7/M

CN(C)CCCNC(=O)c1ccc(-n2cc(-c3ccc4c(c3)c3ccccc3n4CCCN(C)C)nn2)cc1
IC50 at 24 h [13]: > 30 µM | ΔTm (Quadruplex DNA [5]): 15.8 °C | IC50 (HeLa [14]): 3.4 µM | Ka (Quadruplex DNA [6]): 4.76 10^6/M | IC50 (HCT-116): 3.2 µM

Cc1oc2ccc(O)c(CN3CCCCCC3)c2c1C(=O)Nc1ccc(C(F)(F)F)cc1
IC50 [15]: 5.75 µM | IC50 [16]: 5.06 µM | IC50 [17]: 4.13 µM | IC50 [18]: 6.48 µM | IC50 at 72 h [19]: 19.6 µM | IC50 (KMS-12-PE): 5.3 µM | IC50 [20]: 6.35 µM | Ka (Quadruplex DNA [6]): 1.06 10^5/M | ΔTm (Quadruplex DNA [21]): 7.5 °C | IC50 (L-363): 3.4 µM | Ka (Quadruplex DNA [22]): 7.14 10^5/M | IC50 (NCI-H929): 4.89 µM | IC50 [23]: 4.8 µM | IC50 (CA46 [24]): 9.2 µM | IC50 at 72 h [25]: 34 µM | IC50 (AMO1): 5.92 µM

NCCC(=O)NCC1=C2CNC(=O)C3=CC(CNC(=O)CCN)=C(CNC(=O)c4cc(CNC(=O)CCN)c(o4)CNC(=O)C4=CC(CNC(=O)CCN)=C(CNC(=O)C(=C1)O2)O4)O3
K (Quadruplex DNA [26]): 7.71 10^7/M | K (Quadruplex DNA [27]): 5.2 10^5/M | ΔTm (Quadruplex DNA [28]): 25 °C | ΔTm (Quadruplex DNA [29]): 23 °C | Ka (Quadruplex DNA [30]): 4.85 10^6/M

C[n+]1cccc(-c2cc3c4cc(-c5ccc[n+](C)c5)c5nc(C(F)(F)C(F)(F)C(F)(F)F)nc6c(-c7ccc[n+](C)c7)cc(c7cc(-c8ccc[n+](C)c8)c8nc(C(F)(F)C(F)(F)C(F)(F)F)nc2c8c37)c4c56)c1
Ka (Quadruplex DNA [31]): 1.3 10^7/M | Ka (Quadruplex DNA [6]): 2.31 10^7/M | Ka (Quadruplex DNA [8]): 2.38 10^7/M

C(=N\Nc1nc(Nc2ccccc2)nc(Nc2ccccc2)n1)/c1c2ccccc2cc2ccccc12
Ka (Quadruplex DNA [32]): 9.53 10^4/M | Ka (Quadruplex DNA [33]): 8.33 10^5/M
